Measurements taken from US20040191207A1, “ALPHA-HYDROXY ACID ESTER DRUG DELIVERY COMPOSITIONS AND METHODS OF USE” (priority 2003, published 2004).
Like-named read-outs stand apart in the source and are kept apart here.

Key:
[1] = Description: Mixtures were based on weight/weight and ranged from 5% drug/95% unneutralized Imwitor™ 380 to 10% drug/90% unneutralized Imwitor™ 380. The samples were prepared in scintillation vials (Research Products International) containing a stirbar to ensure adequate mixing.
[2] = remark: listed apart in the source
Description: Various pharmaceutical drug actives and prodrugs were screened to test for solubility in the compositions including alpha-hydroxy acid esters. Solubility was determined by adding various amounts of the drug to a composition including alpha-hydroxy acid esters, mixing, and then visually determining the solubility. The composition selected for the screening was Imwitor™ 380, a partially neutralized mixture of citric acid/lactic acid esters of partial glycerides. Imwitor™ 380 contains approximately 60% citric acid/lactic acid esters of partial glycerides, less than 32% 1-monoglyceride, and not more than 5% glycerol (Product Information Sheet, 26.13.199e/07.98; Sasol).
Mixtures were based on weight/weight and ranged from 5% drug/95% Imwitor™ 380 to 15% drug/85% Imwitor™ 380. The samples were prepared in 12 ml glass vials, containing a stirbar to ensure adequate mixing, and sealed with Teflon lined caps (National Scientific Co.; vial: part no B7800-12; cap: 15-425).

Solubility [1] [mg/gm]	Solubility [2] [mg/gm]	SMILES
>100	>150	CCOC(=O)C(C)(C)Oc1ccc(Cl)cc1 [Clofibrate, clofibrate]
>100	>150	CCCC(CCC)C(=O)O [Valproic Acid, valproic acid]
